Measured values published in patent US20150329512A1, “METHOD AND PHARMACEUTICAL COMPOSITION FOR TREATING LUNG CANCER” (National Dong Hua University, priority 2014, published 2015).

How the values were obtained:
[1] = tested on: A549 cells; experiment: MTT assay, cell viability; format: cell-based, human; details: Homo sapiens, 24 hr treatment
Protocol: (§1) A549 (lung cancer cell line, non-resistance) and Anti-Dox-A549 (lung cancer cell line with resistance to Doxorubicin) were maintained in DMEM supplemented with 10% fetal bovine serum (FBS, Gibco), pH 7.4, 37° C. and with continuous circulation of 5% CO2. The medium was changed every 2 days and the cells were trypsinized with trypsin/EDTA when reaching 80%-90% confluence.
(§2) A549 and Anti-Dox-A549 were treated by the following treatment (Table 1) for 24 or 48 hr for examining the effects of HCD, PG, and Dox on their viability.
(§3) Dox1is referred as Dox of 1 μM; Dox2.5 is referred as Dox of 2.5 μM; Dox5 is referred as Dox of 5 μM; Dox10 is referred as Dox of 10 μM; Dox100 is referred as Dox of 100 μM. HCD2.5 is referred as HCD of 2.5 μM; HCD10 is referred as HCD of 10 μM; HCD25 is referred as HCD of 25 μM; HCD50 is referred as HCD of 50 μM. PG2.5 is referred as PG of 2.5 μM; PG5 is referred as PG of 5 μM; PG10 is referred as PG of 10 μM; PG20 is referred as PG of 20 μM.
(§4) In this example, the effects of HCD, PG, and Dox on the viability of A549 and anti-Dox-A549 were examined. The MTT assay was employed for this purpose. The MTT (3-(4-,5-dimethylthiazol-2-yl)-2,5-diphenyltetrazolium bromide) assay is a common colorimetric method in the field for cell viability analysis. MTT (yellow tetrazolium salt) is reduced to a purple formazan by living cells and detection to the purple formazan can be calculated as the cell viability.
(§5) Briefly, cells (A549 or Anti-Dox-A549) were seeded in 96-well plate (7×10^3 cell per well) and incubated overnight (37° C., 5% CO2).

[2] = tested on: Anti-Dox-A549 cells; experiment: MTT assay, cell viability; format: cell-based, human; details: Homo sapiens, 24 hr treatment
Protocol: as §1, §2, §3, §4, §5

[3] = tested on: A549 cells; experiment: Cell cycle analysis by flow cytometer (PI staining); format: cell-based, human
Protocol: (§6) The results of Example 2 in cell viability hinted the effects of HCD, PG, and Dox on arresting cell cycle. In this example, the phase of cell cycle of A549 cells and Anti-Dox-A549 cells after the treatment listed in Table 1 was determined by flow cytometer. Briefly, 7×10^4 cells per well were to inoculated in 12-wells plate and incubated overnight at 37° C., 5% CO2. Then, cells were treated according to the treatment listed in Table 1 by indicated time period. After treatment, cells were harvested by trypsin and fixed with 70% ethanol at −20° C. for at least 3 hr. The cells were washed in cold PBS twice and then incubated with 1 ml (v/v) staining solution (20 μg/m1 propidium iodide (PI), 0.1% Triton X-100, 0.2 mg/ml Rnase) at 37° C. for 30 minutes. Lastly, cells were analyzed by flow cytometer (Cytomics™ FC500, Backman, Fullerton, Calif., USA). Data from 10,000 cells were collected for each experimental group.

[4] = tested on: Anti-Dox-A549 cells; experiment: as above; format: cell-based, human
Protocol: as §6

[5] = tested on: human lung cancer in lung of mice; experiment: Mouse model bearing human lung cancer in lung (A549 or Anti-Dox-A549 cells injected); details: HCD 0.0318 or 1.272 mg/kg, PG 0.1615 or 0.646 mg/kg body weight, IT injection to the lung, monitored every five days for thirty days
Protocol: The animal experiments were approved by the National Dong-Hwa University Animal Ethics Committee and the experimental protocols were used according to the “Guide for the Care and Use of Laboratory Animals” of National Dong-Hwa University. 1×10^7 of A549 cells or Anti-Dox-A549 cells were suspended in PBS to prepare cell suspensions. On day 0, C57/BL6 mice (6-8 weeks old, n=6) were weighted and anesthetic using pentobarbital (5 mg/ml). Then, the mice were injected with the cell suspension (1×10^7 cells per mouse) into the lung by IT. The injection was repeated every 7 days for 21 days. Another group of mice were injected with 10% EtOH as comparative group according to the same procedure set forth above.
After the establishment of human lung cancer in the experimental mice, the mice were maintained for one more week and then treated with HCD (0.0318 or 1.272 mg/kg body weight, in 10% ETOH with PBS), PG (0.1615 or 0.646 mg/kg body weight, in 10% ETOH with PBS) or 10% EtOH by IT injection (intrathecal injection) to the lung. The body weight was monitored every five days for thirty days. After thirty days, the mice were sacrificed and the lungs were checked for marker of human lung adenocarcinoma by H&E and IHC staining. The livers, kidneys and spleens of the mice were also examined to confirm the cytotoxicity of HCD and PG and to see if there was any metastasis happened.

[6] = Dox 5 μM, 24 hr, Table 7 (head prints Anti-Dox-A549; b90: A549 cells)
[7] = Dox 10 μM, 24 hr, Table 7 (head prints Anti-Dox-A549; b90: A549 cells)
[8] = Dox 20 μM, 24 hr, Table 7 (head prints Anti-Dox-A549; b90: A549 cells)
[9] = Dox 5 μM, 24 hr, Anti-Dox-A549 (Table 6)
[10] = Dox 10 μM, 24 hr, Anti-Dox-A549 (Table 6)
[11] = Dox 20 μM, 24 hr, Anti-Dox-A549 (Table 6)
[12] = PG 2.5 μM, 12 hr, Anti-Dox-A549
[13] = PG 2.5 μM, 24 hr, Anti-Dox-A549

Structure (SMILES): COc1cccc2c1C(=O)c1c(O)c3c(c(O)c1C2=O)C[C@@](O)(C(=O)CO)C[C@@H]3O[C@H]1C[C@H](N)[C@H](O)[C@H](C)O1 [Dox, Doxorubicin]
- IC50 [1]: 5 to 10 µM
- IC50 [2]: ~100 µM
- cell cycle effect ([3]; A549 cells, Dox 5, 10, or 20 μM (Table 7)): increased at Sub G1 phase and showed cell arrest at sub G1 phase
- G0/G1 (%) [3, 6]: 50.3 ± 0.9 %
- G2/M (%) [3, 6]: 15.2 ± 1.6 %
- S (%) [3, 6]: 23.5 ± 0.7 %
- Sub G1 (%) [3, 6]: 5.8 ± 0.5 %
- G0/G1 (%) [3, 7]: 50.2 ± 1.4 %
- G2/M (%) [3, 7]: 17 ± 0.3 %
- S (%) [3, 7]: 20.3 ± 0.9 %
- Sub G1 (%) [3, 7]: 7.4 ± 2.3 %
- G0/G1 (%) [3, 8]: 37.3 ± 2.1 %
- G2/M (%) [3, 8]: 21.5 ± 1.6%
- S (%) [3, 8]: 23.5 ± 0.7 %
- Sub G1 (%) [3, 8]: 9.0 ± 0.8 %
- cell cycle effect ([4]; Anti-Dox-A549 cells, Dox 5, 10, or 20 μM (Table 6)): increased at Sub G1 phase and showed cell arrest at S phase
- G0/G1 (%) [4, 9]: 54.7 ± 1.3 %
- G2/M (%) [4, 9]: 9.9 ± 0.7 %
- S (%) [4, 9]: 24.1 ± 0.5 %
- Sub G1 (%) [4, 9]: 6.4 ± 0.6 %
- G0/G1 (%) [4, 10]: 62.8 ± 0.6%
- G2/M (%) [4, 10]: 9.4 ± 0.9 %
- S (%) [4, 10]: 19.9 ± 0.1 %
- Sub G1 (%) [4, 10]: 4.6 ± 0.3 %
- G0/G1 (%) [4, 11]: 58.1 ± 3.4%
- G2/M (%) [4, 11]: 12.4 ± 1.5%
- S (%) [4, 11]: 18.7 ± 0.4 %
- Sub G1 (%) [4, 11]: 6.2 ± 0.6 %

Structure (SMILES): CCCCCC1=C/C(=C/c2[nH]c(-c3ccc[nH]3)cc2OC)N=C1C [PG, Prodigiosin]
- G0/G1 (%) ([3]; PG 2.5 μM, 6 hr, A549): 46.3 ± 3.4 %
- G2/M (%) ([3]; PG 2.5 μM, 6 hr, A549): 32.3 ± 3.1 %
- S (%) ([3]; PG 2.5 μM, 6 hr, A549): 17.3 ± 1.2 %
- Sub G1 (%) ([3]; PG 2.5 μM, 6 hr, A549): 0.3 ± 0.1%
- G0/G1 (%) ([3]; PG 2.5 μM, 12 hr, A549): 62.7 ± 2.7%
- G2/M (%) ([3]; PG 2.5 μM, 12 hr, A549): 27.6 ± 0.7 %
- S (%) ([3]; PG 2.5 μM, 12 hr, A549): 6.6 ± 2.1 %
- Sub G1 (%) ([3]; PG 2.5 μM, 12 hr, A549): 0.4 ± 0.2%
- G0/G1 (%) ([3]; PG 2.5 μM, 24 hr, A549): 85 ± 0.6^ %
- G2/M (%) ([3]; PG 2.5 μM, 24 hr, A549): 11.6 ± 0.7%
- S (%) ([3]; PG 2.5 μM, 24 hr, A549): 1.9 ± 0.15 %
- Sub G1 (%) ([3]; PG 2.5 μM, 24 hr, A549): 0.26 ± 0.05%
- G0/G1 (%) ([3]; PG 5 μM, 6 hr, A549): 42.9 ± 2.1 %
- G2/M (%) ([3]; PG 5 μM, 6 hr, A549): 34.8 ± 0.9 %
- S (%) ([3]; PG 5 μM, 6 hr, A549): 18.2 ± 0.8 %
- Sub G1 (%) ([3]; PG 5 μM, 6 hr, A549): 0.26 ± 0.05%
- G0/G1 (%) ([3]; PG 5 μM, 12 hr, A549): 53.3 ± 1.2 %
- G2/M (%) ([3]; PG 5 μM, 12 hr, A549): 33.1 ± 0.2 %
- S (%) ([3]; PG 5 μM, 12 hr, A549): 10.0 ± 2.0 %
- Sub G1 (%) ([3]; PG 5 μM, 12 hr, A549): 0.36 ± 0.2%
- G0/G1 (%) ([3]; PG 5 μM, 24 hr, A549): 76.2 ± 8.1 %
- G2/M (%) ([3]; PG 5 μM, 24 hr, A549): 22.2 ± 1.1%
- S (%) ([3]; PG 5 μM, 24 hr, A549): 3.0 ± 0.75 %
- Sub G1 (%) ([3]; PG 5 μM, 24 hr, A549): 0.23 ± 0.05%
- G0/G1 (%) ([3]; PG 10 μM, 6 hr, A549): 43.8 ± 3.1 %
- G2/M (%) ([3]; PG 10 μM, 6 hr, A549): 27 ± 2.9%
- S (%) ([3]; PG 10 μM, 6 hr, A549): 18.8 ± 0.5 %
- Sub G1 (%) ([3]; PG 10 μM, 6 hr, A549): 0.33 ± 0.05%
- G0/G1 (%) ([3]; PG 10 μM, 12 hr, A549): 41.6 ± 1.3 %
- G2/M (%) ([3]; PG 10 μM, 12 hr, A549): 29.1 ± 3.0 %
- S (%) ([3]; PG 10 μM, 12 hr, A549): 16.6 ± 1.4%
- Sub G1 (%) ([3]; PG 10 μM, 12 hr, A549): 0.46 ± 0.1%
- G0/G1 (%) ([3]; PG 10 μM, 24 hr, A549): 43.8 ± 2.4 %
- G2/M (%) ([3]; PG 10 μM, 24 hr, A549): 26.5 ± 10.0%
- S (%) ([3]; PG 10 μM, 24 hr, A549): 9.1 ± 1.7 %
- Sub G1 (%) ([3]; PG 10 μM, 24 hr, A549): 0.9 ± 0.7%
- G0/G1 (%) ([4]; PG 2.5 μM, 6 hr, Anti-Dox-A549): 58.9 ± 7.1%
- G2/M (%) ([4]; PG 2.5 μM, 6 hr, Anti-Dox-A549): 23.5 ± 1.9%
- S (%) ([4]; PG 2.5 μM, 6 hr, Anti-Dox-A549): 18.5 ± 0.5%
- Sub G1 (%) ([4]; PG 2.5 μM, 6 hr, Anti-Dox-A549): 2.2 ± 0.1 %
- G0/G1 (%) [4, 12]: 65.3 ± 2.9%
- G2/M (%) [4, 12]: 17.2 ± 6.5%
- S (%) [4, 12]: 13.8 ± 4.7%
- Sub G1 (%) [4, 12]: 1.6 ± 1.2%
- G0/G1 (%) [4, 13]: 81.8 ± 5.7%
- G2/M (%) [4, 13]: 8.8 ± 1.4%
- S (%) [4, 13]: 3.1 ± 1.3 %
- Sub G1 (%) [4, 13]: 0.9 ± 0.3%
- G0/G1 (%) ([4]; PG 5 μM, 6 hr, Anti-Dox-A549): 56 ± 1.3%
- G2/M (%) ([4]; PG 5 μM, 6 hr, Anti-Dox-A549): 23.6 ± 2.3%
- S (%) ([4]; PG 5 μM, 6 hr, Anti-Dox-A549): 18.7 ± 0.8%
- Sub G1 (%) ([4]; PG 5 μM, 6 hr, Anti-Dox-A549): 1.9 ± 0.3%
- G0/G1 (%) ([4]; PG 5 μM, 12 hr, Anti-Dox-A549): 62.7 ± 4.7 %
- G2/M (%) ([4]; PG 5 μM, 12 hr, Anti-Dox-A549): 19.2 ± 6.9%
- S (%) ([4]; PG 5 μM, 12 hr, Anti-Dox-A549): 16.8 ± 5.5%
- Sub G1 (%) ([4]; PG 5 μM, 12 hr, Anti-Dox-A549): 2.9 ± 1.0%
- G0/G1 (%) ([4]; PG 5 μM, 24 hr, Anti-Dox-A549): 76.2 ± 6.0%
- G2/M (%) ([4]; PG 5 μM, 24 hr, Anti-Dox-A549): 13.8 ± 1.7%
- S (%) ([4]; PG 5 μM, 24 hr, Anti-Dox-A549): 3.7 ± 2.0 %
- Sub G1 (%) ([4]; PG 5 μM, 24 hr, Anti-Dox-A549): 4.3 ± 5.3%
- G0/G1 (%) ([4]; PG 10 μM, 6 hr, Anti-Dox-A549): 54.6 ± 3.0 %
- G2/M (%) ([4]; PG 10 μM, 6 hr, Anti-Dox-A549): 19.8 ± 6.6%
- S (%) ([4]; PG 10 μM, 6 hr, Anti-Dox-A549): 22.9 ± 3.4 %
- Sub G1 (%) ([4]; PG 10 μM, 6 hr, Anti-Dox-A549): 2 ± 0.6%
- G0/G1 (%) ([4]; PG 10 μM, 12 hr, Anti-Dox-A549): 53.2 ± 2.5 %
- G2/M (%) ([4]; PG 10 μM, 12 hr, Anti-Dox-A549): 22.8 ± 6.4%
- S (%) ([4]; PG 10 μM, 12 hr, Anti-Dox-A549): 21.4 ± 3.7%
- Sub G1 (%) ([4]; PG 10 μM, 12 hr, Anti-Dox-A549): 1.8 ± 0.2%
- G0/G1 (%) ([4]; PG 10 μM, 24 hr, Anti-Dox-A549): 44.3 ± 7.7 %
- G2/M (%) ([4]; PG 10 μM, 24 hr, Anti-Dox-A549): 27.9 ± 1.9 %
- S (%) ([4]; PG 10 μM, 24 hr, Anti-Dox-A549): 11.7 ± 3.7%
- Sub G1 (%) ([4]; PG 10 μM, 24 hr, Anti-Dox-A549): 6.9 ± 4.3%
- body weight of the experimental mice [5]: did not show significantly change
